Laboratory results as given in article PMC6210075 (ACS Omega, 2018).

What was measured:
[1] = target: T1, rat sEH (Rattus norvegicus, UniProt P80299); assay: sEH fluorescent inhibition assay, recombinant rat sEH; assay type: biochemical
T1 sequence (P80299 1-554): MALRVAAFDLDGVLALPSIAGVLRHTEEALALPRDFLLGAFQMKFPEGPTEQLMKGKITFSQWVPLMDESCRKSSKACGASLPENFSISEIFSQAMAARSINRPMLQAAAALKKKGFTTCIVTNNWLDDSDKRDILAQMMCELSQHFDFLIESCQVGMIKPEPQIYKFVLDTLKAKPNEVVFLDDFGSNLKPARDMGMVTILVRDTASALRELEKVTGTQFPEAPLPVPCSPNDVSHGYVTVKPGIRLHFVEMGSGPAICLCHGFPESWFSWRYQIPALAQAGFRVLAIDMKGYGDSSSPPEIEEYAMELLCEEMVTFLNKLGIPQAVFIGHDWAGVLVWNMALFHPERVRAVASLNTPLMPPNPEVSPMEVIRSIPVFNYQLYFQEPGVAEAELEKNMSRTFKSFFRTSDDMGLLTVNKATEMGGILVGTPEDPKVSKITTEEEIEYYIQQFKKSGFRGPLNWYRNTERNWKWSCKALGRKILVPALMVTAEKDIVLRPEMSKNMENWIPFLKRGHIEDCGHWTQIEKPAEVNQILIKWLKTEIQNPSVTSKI

[2] = target: T2, mouse FAAH (Mus musculus, UniProt O08914); assay: FAAH fluorescent inhibition assay, mouse crude tissue homogenate; assay type: biochemical; settings: FAAH IC50 (5 min pre-incubation)
T2 sequence (O08914 1-579): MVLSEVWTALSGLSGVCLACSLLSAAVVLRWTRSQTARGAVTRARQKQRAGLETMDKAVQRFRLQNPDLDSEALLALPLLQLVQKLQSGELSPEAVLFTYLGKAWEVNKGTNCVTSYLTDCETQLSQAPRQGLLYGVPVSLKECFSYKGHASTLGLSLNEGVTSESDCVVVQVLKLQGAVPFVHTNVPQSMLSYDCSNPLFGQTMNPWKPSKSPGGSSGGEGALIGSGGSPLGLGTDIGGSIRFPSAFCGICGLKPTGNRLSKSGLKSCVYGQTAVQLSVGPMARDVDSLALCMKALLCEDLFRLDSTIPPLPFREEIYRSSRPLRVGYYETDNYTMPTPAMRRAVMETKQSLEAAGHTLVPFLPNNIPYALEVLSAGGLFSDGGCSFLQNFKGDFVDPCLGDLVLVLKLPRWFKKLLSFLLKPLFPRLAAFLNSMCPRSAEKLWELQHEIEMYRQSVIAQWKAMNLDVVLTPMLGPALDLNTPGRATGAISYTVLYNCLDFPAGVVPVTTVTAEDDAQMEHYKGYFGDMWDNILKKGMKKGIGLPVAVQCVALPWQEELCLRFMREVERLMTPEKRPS

[3] = target: T3, human sEH (Homo sapiens, UniProt P34913); assay: FRET-based displacement assay for inhibitor dissociation from sEH; assay type: binding
T3 sequence (P34913 1-555): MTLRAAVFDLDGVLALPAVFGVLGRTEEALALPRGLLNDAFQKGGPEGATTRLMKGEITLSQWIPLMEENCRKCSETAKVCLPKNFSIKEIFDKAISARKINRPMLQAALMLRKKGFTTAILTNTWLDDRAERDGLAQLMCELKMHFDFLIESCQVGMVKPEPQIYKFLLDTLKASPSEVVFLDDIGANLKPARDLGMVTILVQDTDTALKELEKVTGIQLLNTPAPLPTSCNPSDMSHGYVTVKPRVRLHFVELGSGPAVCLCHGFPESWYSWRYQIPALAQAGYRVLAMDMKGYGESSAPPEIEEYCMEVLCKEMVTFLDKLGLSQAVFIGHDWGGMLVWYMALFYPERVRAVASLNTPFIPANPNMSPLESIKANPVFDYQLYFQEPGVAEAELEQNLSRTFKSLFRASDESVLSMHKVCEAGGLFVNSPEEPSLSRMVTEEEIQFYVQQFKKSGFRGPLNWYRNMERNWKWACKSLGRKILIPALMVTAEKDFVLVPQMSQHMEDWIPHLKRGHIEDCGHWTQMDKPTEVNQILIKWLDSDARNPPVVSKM

In the case of `O=C(Nc1ccc(C(F)(F)F)cc1F)N1CCC(Cc2cccc(Oc3ccc(C(F)(F)F)cn3)c2)CC1` [compound 18], the IC50 [1] is reported as 240 nM, the IC50 [2] is reported as > 10000 nM and the “t1/2 (half-life on the enzyme)” value ([3]; human sEH) is reported as 4.4 min. The koff ([3]; read-out: koff × 10^–3) was 2.7 s⁻¹.
